Results on one compound are retold here after publication PMC11950731 (Synthetic and Systems Biotechnology, 2025).

Assay [1] has as its system PpUGT91AH5. Kind of assay: LC-MS glucosyltransferase assay, varied trillin. Format: biochemical, Paris polyphylla. To be noted: saturating UDP-glucose; assay buffer 50 mM Tris-HCl pH 8.0, 1 mM MgCl2, 37 °C.
Assay [2] has as its system PpUGT91AH4. Kind of assay: LC-MS glucosyltransferase assay, varied trillin. Format: biochemical, Paris polyphylla. The conditions noted are these: saturating UDP-glucose; assay buffer 50 mM Tris-HCl pH 8.0, 1 mM MgCl2, 37 °C.

For `C[C@@H]1CC[C@@]2(OC1)O[C@H]1C[C@H]3[C@@H]4CC=C5C[C@@H](O[C@@H]6O[C@H](CO)[C@@H](O)[C@H](O)[C@H]6O)CC[C@]5(C)[C@H]4CC[C@]3(C)[C@H]1[C@@H]2C` [trillin], the Km – broadly, the concentration of substrate that gives half-maximal velocity – in assay [1] stood at 7.81 ± 1.2 mM; in assay [2] it was 5.67 ± 0.84 mM.
